# Laboratory results published in ChEMBL document CHEMBL2157996, “Thioglycine and L-thiovaline: biologically active H₂S-donors” (Bioorg Med Chem, 2012).
# Activity calls are given as the source filed them. The calls are words filed in the database; no cut-off is given here.
# Assays:
# [1] = Induction of H2S production at 200 uM measured every 15 sec to 1 min by thiobimane fluorescent method
# [2] = Induction of H2S production after 15 mins by methylene blue method; type: physicochemical; conditions: 0.25 h
# [3] = Drug degradation in Hanks buffered salt solution assessed as formation of glycine N-carboxyanhydride at 37 degC; type: physicochemical; conditions: buffer
# [4] = Vasodilatory activity in Wistar rat RASMC cells assessed as increase in cGMP levels after 5 mins by enzyme immunoassay; type: functional, cell-based
# [5] = Vasodilatory activity in Wistar rat RASMC cells assessed as increase in cGMP levels at 100 uM after 5 mins by enzyme immunoassay relative to control; type: functional, cell-based
# [6] = Induction of H2S production after 60 mins by thiobimane fluorescent method; type: physicochemical; conditions: 1 h
# [7] = Induction of H2S production by sodium nitroprusside assay; type: physicochemical
# Rattus norvegicus [8] = test: Induction of H2S release in Sprague-Dawley rat plasma assessed as increase in H2S levels at 5 mg/kg, ip by amperometry; type: functional, organism-based; set-up: dose 5 mg/kg; conditions: TDE = time-dependent effect
# [9] = Stability of the compound assessed as compound remaining at 40 degC after 36 hrs by NMR spectroscopy in the presence of NaHCO3; type: physicochemical; conditions: NaHCO3 present; read-out: Stability
# [10] = Stability of the compound assessed as compound remaining at 40 degC after 48 hrs by NMR spectroscopy in the presence of NaHCO3; type: physicochemical; conditions: NaHCO3 present; read-out: Stability
# [11] = Induction of H2S production at 100 uM by amperometry; type: physicochemical
# Rattus norvegicus [12] = test: Induction of H2S release in Sprague-Dawley rat plasma assessed as increase in H2S levels at 5 mg/kg, ip upto 8 hrs by amperometry; type: functional, organism-based; set-up: dose 5 mg/kg
# [13] = Stability of the compound assessed as compound remaining at 40 degC after 24 hrs by NMR spectroscopy in the presence of NaHCO3; type: physicochemical; conditions: NaHCO3 present; read-out: Stability
# [14] = Vasodilatory activity in Wistar rat RASMC cells assessed as increase in cGMP levels up to 3 mM after 5 mins by enzyme immunoassay; type: functional, cell-based
# Rattus norvegicus [15] = test: Induction of H2S release in Sprague-Dawley rat plasma assessed as increase in H2S levels at 5 mg/kg, ip after 30 mins by amperometry; type: functional, organism-based; set-up: dose 5 mg/kg
# [16] = Induction of H2S production by amperometry; type: physicochemical
# [17] = Stability of the compound assessed as compound remaining at 40 degC after 60 hrs by NMR spectroscopy in the presence of NaHCO3; type: physicochemical; conditions: NaHCO3 present; read-out: Stability
# [18] = Stability of the compound assessed as compound remaining at 25 degC after 24 hrs by NMR spectroscopy in the presence of NaHCO3; type: physicochemical; conditions: NaHCO3 present; read-out: Stability
# [19] = Stability of the compound assessed as compound remaining at 40 degC after 72 hrs by NMR spectroscopy in the presence of NaHCO3; type: physicochemical; conditions: NaHCO3 present; read-out: Stability
compound,measurement,setting,value
CC(C)[C@H](N)C(=O)S,Activity,[1],Active
same,Activity,[2],Active
same,Drug metabolism,[3],Active
same,Activity,[4],Dose-dependent effect
CC(C)[C@H](N)C(=O)O,Activity,[5],inactive
NCC(=O)O,Activity,[5],inactive
NCC(=O)S [THIOGLYCIN],Activity,[6],Active
same,Activity,[1],Active
same,Activity,[7],Active
same,Activity,[2],Active
same,Activity,Rattus norvegicus [8],tde
same,remaining at 36 h,[9],83%
same,remaining at 48 h,[10],76%
same,Activity,[11],Active
same,Activity,Rattus norvegicus [12],Active
same,remaining at 24 h,[13],88%
same,Drug metabolism,[3],Active
same,Activity,[14],Active
same,Activity,Rattus norvegicus [15],Active
same,Activity,[16],Dose-dependent effect
same,remaining at 60 h,[17],72%
same,fold change (FC),[5],10
same,remaining at 24 h,[18],100%
same,remaining at 72 h,[19],85%
same,Activity,[4],Dose-dependent effect
